Assay results taken from patent US11033535B2, “Oxadiazoles and thiadiazoles as TGF-β inhibitors” (Southern Research Institute, priority 2017, dated 2021).
Like-named read-outs stand apart in the source and are kept apart here.

Assay: Pharmacokinetic evaluation following a single oral and intravenous administration
Assay type: in vivo, CD1 mouse
Conditions: CD1, mouse, plasma; for C0 / AUC(0-inf) / AUC(0-t) / MRT inf / half-life / Vd: Table 4, IV Dose: 1 mg/kg
Protocol: A NMP stock solution was prepared by adding 1.136 mL of NMP to 5.68 mg of compound no. 42140 with vortexing and sonification, to obtain a solution with a concentration at 5 mg/mL of 42140:01. Next, to prepare an intravenous formulation, 0.100 mL of the 5 mg/mL stock solution was placed in a new vial. 0.100 mL of NMP and 0.400 mL of PEG400 were added with vortexing and sonification, followed by addition of 0.400 mL of saline with vortexing and sonification. […] 42140:01. Alternatively, to prepare an oral formulation, 0.200 mL of the 5 mg/mL stock solution was placed in a new vial. 0.400 mL of PEG400 was added with vortexing and sonification, followed by addition of 0.400 mL of saline with vortexing and sonifiction. […] 42140:01.
(§1) Briefly, the desired serial concentrations of working solutions were achieved by diluting a stock solution of the compound with 100% acetonitrile. 3 μL of working solutions (5, 10, 20, 50, 100, 500, 1000, 5000, 10000 ng/mL) were added to 30 μL of the blank CD1 mouse plasma to achieve calibration standards of 0.5-1000 ng/mL (0.5, 1, 2, 5, 10, 50, 100, 500, 1000 ng/mL) in a total volume of 33 μL. Five quality control samples at 1 ng/mL, 2 ng/mL, 5 ng/mL, 50 ng/mL and 800 ng/mL for plasma were prepared independently of those used for the calibration curves. These QC samples were prepared on the day of analysis in the same way as calibration standards.
Next, 33 μL standards, 33 μL QC samples, and 33 μL unknown samples (30 μL plasma with 3 μL blank solution) were added to 200 μL of acetonitrile containing IS mixture for precipitating protein, respectively. Then the samples were vortexed for 30 s. After centrifugation at 4 degree Celsius, 4000 rpm for 15 min, 3 μL of supernatant was injected into the LC/MS/MS system for quantitative analysis.
HPLC analysis was performed using 100% water with 0.1% formic acid (Solution A) and 100% acetonitrile with 0.1% formic acid (Solution B) with a flow rate of 0.6 mL/min.
A NMP stock solution was prepared by adding 2.092 mL of NMP to 10.46 mg of […] with vortexing and sonification, to obtain a solution with a concentration at 5 mg/mL of […]. Next, to prepare an intravenous formulation, 0.100 mL of the 5 mg/mL stock solution was placed in a new vial. 0.100 mL of NMP and 0.400 mL of PEG400 were added with vortexing and sonification, followed by addition of 0.400 mL of saline with vortexing and sonification. […] 42320:01. Alternatively, to prepare an oral formulation, 0.200 mL of the 5 mg/mL stock solution was placed in a new vial. 0.400 mL of PEG400 was added with vortexing and sonification, followed by addition of 0.400 mL of saline with vortexing and sonifiction. […] 42320:01.
as §1, with “50 ng/mL,” for “50 ng/mL”

[1] = iv, 1 mg/kg, Table 3, IV Dose: 1 mg/kg, Mouse 1, read-out: Concentration
[2] = iv, 1 mg/kg, Table 3, IV Dose: 1 mg/kg, Mouse 2, read-out: Concentration
[3] = iv, 1 mg/kg, Table 3, IV Dose: 1 mg/kg, Mouse 3, read-out: Concentration
[4] = iv, 1 mg/kg, Table 3, IV Dose: 1 mg/kg, mean, read-out: Concentration, Mean
[5] = po, 5 mg/kg, Table 5, PO Dose: 5 mg/kg, Mouse 4, read-out: Concentration
[6] = po, 5 mg/kg, Table 5, PO Dose: 5 mg/kg, Mouse 5, read-out: Concentration
[7] = po, 5 mg/kg, Table 5, PO Dose: 5 mg/kg, Mouse 6, read-out: Concentration
[8] = po, 5 mg/kg, Table 5, PO Dose: 5 mg/kg, mean, read-out: Concentration, Mean

## CNCc1ccc(C[C@H](NC(C)=O)c2nnc(-c3cccc(OC(F)(F)F)c3)s2)cc1 [Compound 42140, N-(2-(4-((methylamino)methyl)phenyl)-1-(5-(3-(trifluoromethoxy)phenyl)-1,3,4-thiadiazol-2-yl)ethyl)acetamide]
[1]
  concentration at 5 min: 96.6 ng/mL
  concentration at 0.25 h: 81.5 ng/mL
  concentration at 0.5 h: 57.2 ng/mL
  concentration at 1 h: 57.8 ng/mL
  concentration at 2 h: 43.7 ng/mL
  concentration at 4 h: 26.1 ng/mL
  concentration at 8 h: 16.9 ng/mL
  concentration at 24 h: 6.4 ng/mL
[2]
  concentration at 5 min: 89.5 ng/mL
  concentration at 0.25 h: 65 ng/mL
  concentration at 0.5 h: 53.8 ng/mL
  concentration at 1 h: 42.1 ng/mL
  concentration at 2 h: 34.1 ng/mL
  concentration at 4 h: 18.8 ng/mL
  concentration at 8 h: 15.5 ng/mL
  concentration at 24 h: 5.76 ng/mL
[3]
  concentration at 5 min: 86.3 ng/mL
  concentration at 0.25 h: 74.2 ng/mL
  concentration at 0.5 h: 48.1 ng/mL
  concentration at 1 h: 43.7 ng/mL
  concentration at 2 h: 39.9 ng/mL
  concentration at 4 h: 23.3 ng/mL
  concentration at 8 h: 14.9 ng/mL
  concentration at 24 h: 4.27 ng/mL
[4]
  concentration at 5 min: 90.8 ng/mL
  concentration at 0.25 h: 73.6 ng/mL
  concentration at 0.5 h: 53 ng/mL
  concentration at 1 h: 47.9 ng/mL
  concentration at 2 h: 39.2 ng/mL
  concentration at 4 h: 22.7 ng/mL
  concentration at 8 h: 15.8 ng/mL
  concentration at 24 h: 5.48 ng/mL
iv, 1 mg/kg, Mouse 1
  C0: 105 ng/mL
iv, 1 mg/kg, Mouse 1, read-out: AUCInf
  AUC(0-inf): 557 ng·h/mL
iv, 1 mg/kg, Mouse 1, read-out: AUClast
  AUC(0-t): 462 ng·h/mL
iv, 1 mg/kg, Mouse 1, read-out: MRTInf—obs
  MRT inf: 12.1 h
iv, 1 mg/kg, Mouse 1, read-out: T1/2 (converted)
  half-life: 10.3 h
iv, 1 mg/kg, Mouse 1, read-out: Vss—obs
  Vd: 21.8 L/kg
iv, 1 mg/kg, Mouse 2
  C0: 105 ng/mL
iv, 1 mg/kg, Mouse 2, read-out: AUCInf
  AUC(0-inf): 486 ng·h/mL
iv, 1 mg/kg, Mouse 2, read-out: AUClast
  AUC(0-t): 389 ng·h/mL
iv, 1 mg/kg, Mouse 2, read-out: MRTInf—obs
  MRT inf: 13.7 h
iv, 1 mg/kg, Mouse 2, read-out: T1/2 (converted)
  half-life: 11.6 h
iv, 1 mg/kg, Mouse 2, read-out: Vss—obs
  Vd: 28.1 L/kg
iv, 1 mg/kg, Mouse 3
  C0: 93 ng/mL
iv, 1 mg/kg, Mouse 3, read-out: AUCInf
  AUC(0-inf): 445 ng·h/mL
iv, 1 mg/kg, Mouse 3, read-out: AUClast
  AUC(0-t): 394 ng·h/mL
iv, 1 mg/kg, Mouse 3, read-out: MRTInf—obs
  MRT inf: 9.69 h
iv, 1 mg/kg, Mouse 3, read-out: T1/2 (converted)
  half-life: 8.36 h
iv, 1 mg/kg, Mouse 3, read-out: Vss—obs
  Vd: 21.8 L/kg
iv, 1 mg/kg, mean, read-out: AUCInf, Mean
  AUC(0-inf): 496 ng·h/mL
iv, 1 mg/kg, mean, read-out: AUClast, Mean
  AUC(0-t): 415 ng·h/mL
iv, 1 mg/kg, mean, read-out: MRTInf—obs, Mean
  MRT inf: 11.8 h
iv, 1 mg/kg, mean, read-out: T1/2, Mean (converted)
  half-life: 10.1 h
iv, 1 mg/kg, mean, read-out: Vss—obs, Mean
  Vd: 23.9 L/kg
[5]
  concentration at 0.25 h: 54.5 ng/mL
  concentration at 0.5 h: 92.2 ng/mL
  concentration at 1 h: 117 ng/mL
[6]
  concentration at 0.25 h: 60.6 ng/mL
  concentration at 0.5 h: 91.9 ng/mL
[7]
  concentration at 0.25 h: 73.1 ng/mL
  concentration at 0.5 h: 106 ng/mL
[8]
  concentration at 0.25 h: 62.7 ng/mL
  concentration at 0.5 h: 97 ng/mL
